Test results taken from the supplement of paper PMC11997997.

Experiments:
[1] = tested on: Mycobacterium tuberculosis CDC1551 (intracellular, in murine BMDM); assay: area under intracellular growth-inhibition dose-response curve (AUC (% inhibition x dose, relative)); higher = more potent; settings: duration: 6 days; dose range: 0.13-80 uM, 8 points
Method in brief: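 Each value is an area under the growth-inhibition dose–response curve, calculated with GraphPad Prism. Infected primary murine bone marrow-derived macrophages, carrying luciferase-expressing M. tuberculosis CDC1551 at multiplicity of infection 1, were treated for 6 days with an 8-dose, 2.5-fold series (final 80–0.13 μM) in 384-well opaque plates. Readout was by Bright-Glo luciferin assay, normalised to a reference drug control and the lowest-concentration wells.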

[2] = tested on: murine bone marrow-derived macrophages; assay: area under cytotoxicity dose-response curve (AUC (% cytotoxicity x dose, relative)); higher = more cytotoxic; settings: duration: 6 days; dose range: 0.13-80 uM, 8 points
Method in brief: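 An 8-point, 2.5-fold dilution series (final 80–0.13 μM) was applied for 6 days at 37 °C in 5% CO2 to primary murine bone marrow-derived macrophages plated in opaque 384-well plates. Promega's CellTiter-Glo luminescence assay measured viability, and percent cytotoxicity was normalised against vehicle and positive control wells. The area under the dose–response curve, worked out in GraphPad Prism version 10, is the reported cytotoxicity measure.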

| SMILES | area under intracellular growth-inhibition dose-response curve [1] | area under cytotoxicity dose-response curve [2] |
| --- | --- | --- |
| CN(C)c1nc(-c2ccccn2)nnc1-c1ccccc1 | 149 | 120 |
| O=C(NN=C1CCCCCCCCCCC1)c1ccncc1 | 262 | 73.9 |
| COc1ccc(/C=N/NC(=O)c2ccncc2)cc1CN1CCCc2ccccc21 | 201 | 19.4 |
| CCOc1ccc2oc(C(=O)OCC(=O)NCc3ccc(OC)cc3)c(C)c2c1 | 58.1 | < 0 |
| Cc1c2c(nc3ccccc13)CCC(C)C2.Cl (stereo unspecified) | 199 | < 0 |
| CCCCC(=O)NCc1ccccc1Cl | 262 | 22.2 |
| Cc1cc(C(=O)NCc2cccs2)cs1 | 25.9 | 9.86 |
| Cc1nnc(SCC2=C(C(=O)O)N3C(=O)C(NC(=O)COc4ccccc4)C3SC2)s1 (stereo unspecified) | 151 | 73.9 |
| O=C(N/N=C/c1coc2ccccc2c1=O)c1ccncc1 | 272 | < 0 |
| O=[N+]([O-])c1ccc(/C=N/Nc2nc(N3CCCC3)nc(N3CCCC3)n2)o1 | 168 | 171 |
| CCOc1ccc(C(=O)NC(=S)Nc2ccc(N3CCC(C)CC3)cc2)cc1[N+](=O)[O-] | 254 | 81.7 |
| Cc1nc(SCc2ccccc2)c2oc3ccccc3c2n1 | 143 | 34.5 |
| Cc1[nH]c2ccccc2c1C(=O)C(C)OC(=O)c1ccc([N+](=O)[O-])o1 (stereo unspecified) | 3.96 | < 0 |
